For orientation: IC50 means the point on the concentration scale where inhibition reaches its midpoint. What is called EC50 is the concentration at which the effect is half-maximal.

Read-outs that look alike come from different tables or passages of the source.

For series [1], the system named is IL-10 production in peripheral blood mononuclear cells (PBMCs). Briefly: Human IL-10 induction assay in PBMCs. The class given is cell-based. The following applies: TPA/PHA stimulated human PBMCs, IL-10 in supernatant by immunoassay. The text has this: 7. The IL-10 induction assay is described in the “Assay” section of the Description, infra.
The evaluation of the novel compounds of the invention for psoriasis is done using the Keratinocyte Proliferation Assay in combination with other assays that measure inhibition of IL-2 production and stimulation of IL-10 production in peripheral blood mononuclear cells (PBMCs).
6. The IL-1 Induction Assay
This is an in vitro efficacy assay for psoriasis, abscess and adhesion. Psoriasis involves both keratinocytes and immune cells. IL-10 is a unique cytokine because it is anti-inflammatory and immunosuppressive. This assay tells us whether a VDRM is able to function as an agonist in PBMCs (primary blood mononuclear cells) or not. A lower EC50 value is desirable in this assay since a compound with a lower EC50 value will be a better agonist in PBMCs. An acceptable test result is an EC50 value of less than 200 nM.
(6) Materials and Method for Human IL-10 Induction Assay:
Isolation of peripheral blood mononuclear cells (PBMCs):
• A. Collect 50 ml of human blood and dilute with media, RPMI-1640. • B. Prepare sterile tubes with ficol. • C. Add diluted blood to tubes. • D. Centrifuge. • E. Discard the top layer and collect the cells from middle layer. • F. Divide all cells into four tubes and add media. • G. Centrifuge. • H. Aspirate off media and resuspend. • I. Collect all cells • J. Centrifuge. at 1200 rpm for 10 minutes. • K. Resuspend in RPMI-1640 with 2% FBS and count cells • Stimulation of PBMC: • L. Prepare TPA in DMSO. • M. Dissolve PHA in water. • N. Plate TPA/PHA treated PBMCs in well plates. • O. Incubate. • Treatment: • P. Prepare all compound dilutions in plain RPMI-1640 media. • Q. Add diluted compound. • R. Incubate. • Sample Collection and assay: • S. Remove all the cells by centrifugation and assay the supernatant for IL-10 by immunoassay. • 1) T. Perform IL-10 assay using anti-human IL-10 antibody coated beads, as described by the manufacturer (Linco Research Inc., St. Charles, Mo.).

The test system of the next series is KERtr cells. Briefly: Keratinocyte proliferation assay (BrdU incorporation). The class given is cell-based. The following applies: KERtr human skin keratinocytes, 72 hr treatment, read-out: Kera. Prolif. IC50. The procedure: 6. The keratinocyte proliferation assay is described in the “Assay” section of the Description, infra.
5. The Keratinocyte Proliferation Assay
This Assay is indicative for the treatment of psoriasis.
(5) The Keratinocyte Proliferation Assay:
KERtr cells (Human skin keratinocyte transformed with a retrovirus vector, obtained from ATCC) were plated in 96-well flat-bottomed plates (3000 cells/well) in 100 µl keratinocyte serum free medium supplemented with bovine pituitary extract in the absence of EGF (Life Technologies, Rockville, Md.) and incubated at 37° C. for two days. The cells were treated with various concentrations of VDR ligands (ten-fold serial dilution from 10,000 nM to 0.1 nM in triplicate), dissolved in 100 µl keratinocyte serum free medium supplemented with bovine pituitary extract in the absence of EGF and incubated at 37° C. for 72 hr. […] Potency values (IC50) values were determined as the concentration (nM) of compound that elicited a half-maximal response.

The nature of series [2]: Mouse hypercalcemia assay (six day, serum ionized calcium). In kind it is in vivo. The procedure: 5. The Mouse Hypercalcemia test is described in the “Assay” section of the Description, infra.
4. The Mouse Hypercalcemia Assay
The Mouse Hypercalcemia Assay is a six day hypercalcemia test for toxicity and selectivity. Acceptable test results are levels greater than 300 μg/kg/day. Preferred assay results are levels greater than 1000 μg/kg/day.
(4) Materials and Method for The Mouse Hypercalcemia Assay:
Weanling, virus-antibody-free, five to six weeks old female DBF mice (Harlan, Indianapolis, Ind.) are used for all the studies. Animals are allowed to acclimate to local vivarium conditions for 2 days. […] The animals then are divided into groups with 4-5 mice per group. Different doses of test compounds prepared in 10% Ethanol and 90% sesame oil are administered to mice orally via gavage for 6 days. 1α-25(OH)2D3 0.5 μg/kg/d was also given to one group of mice as the positive control. Serum ionized calcium is evaluated at 6 hours after the last dosing under isoflurane anesthesia by Ciba-Corning Ca++/PH Analyzer, (Model 634, Chiron Diagnostics Corp., East Walpole, Mass.). Raw data of group differences is assessed by analysis of variance (ANOVA) using Fisher's protected least significant difference (PLSD) where the significance level was P<0.05.

The test system of the next series is rat osteocalcin promoter. Briefly: OCN (osteocalcin) promoter assay in RG-15 (ROS 17/2.8) cells. In kind it is cell-based. In short, it runs like this: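 Rat osteoblast-like RG-15 (ROS 17/2.8) cells stably carry the rat osteocalcin promoter fused to luciferase. They were treated with compounds for 48 h in medium with 2% FBS and 0.01% DMSO. EC50 was derived from luciferase activity in cell lysates.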

Setting [3] is: Homo sapiens, Keratinocyte, 72 h.

As for `CCC(CC)(c1ccc(OS(C)(=O)=O)c(C)c1)c1cc(C)c(CCC(O)C(C)(C)C)s1` (single isomer, unassigned) [Ex. 19A], the IC50 is 60 nM in series [1] (Homo sapiens, PBMC) and 18 nM in the series on KERtr cells (setting [3]).

Regarding `CCC(CC)(c1ccc(CCC(=O)O)c(C)c1)c1cc(C)c(CCC(O)C(C)(C)C)s1` (single isomer, unassigned) [Ex. 30B], the IC50 in series [1] (Homo sapiens, PBMC) amounted to 120 nM.

Regarding `CCC(CC)(c1ccc(OCC(O)C(C)(C)C)c(C)c1)c1cc(C)c(C(=O)NC(C)(C)C(=O)O)s1` (single isomer, unassigned) [Ex. 71, 2-[(5-{1-Ethyl-1-[4-(2-hydroxy-3,3-dimethyl-butoxy)-3-methyl-phenyl]-propyl}-3-methyl-thiophene-2-carbonyl)-amino]-2-methyl-propionic acid], the “Mouse Hypercal” value in series [2] was less than 300 µg/kg/day. Moreover, in the series on rat osteocalcin promoter (Rattus norvegicus), the EC50 turned out to be 3.5 nM. The IC50 in the series on KERtr cells is 29 nM.

As for `CCC(CC)(c1ccc(OCC(O)C(C)(C)C)c(C)c1)c1cc(C)c(C(=O)NC(C)(C)C(=O)O)s1` (single isomer, unassigned) [Ex. 77, 2-[(5-{1-Ethyl-1-[4-(2-hydroxy-3,3-dimethyl-butoxy)-3-methyl-phenyl]-propyl}-3-methyl-thiophene-2-carbonyl)-amino]-2-methyl-propionic acid], in series [2], the “Mouse Hypercal” value is 300 µg/kg/day. Further, the EC50 in the series with rat osteocalcin promoter turned out to be 2 nM. Moreover, the IC50 with KERtr cells turned out to be 194 nM.

With `CCc1cc(C(CC)(CC)c2ccc(C(=O)O)s2)ccc1OCC(O)C(C)(C)C` (single isomer, unassigned) [Ex. 100, 3′-[4-(2-hydroxy-3,3-dimethylbutoxy)-3-ethylphenyl]-3′-[5-carboxy-thiophen-2-yl]pentane], the “Mouse Hypercal” value in series [2] was 3000 µg/kg/day. In addition, the EC50 with rat osteocalcin promoter came out at 5.63 nM. For the same compound, the concentration for half-maximal inhibition (IC50) with KERtr cells (setting [3]) was determined as 215 nM.

As to `CCC(CC)(c1ccc(OCC(C)(O)C(C)(C)C)c(C)c1)c1ccc(C(=O)NCC(=O)O)s1` (single isomer, unassigned) [Ex. 106, 3′-[4-(2-hydroxy-2,3,3-trimethylbutoxy)-3-methylphenyl]-3′-[5-(carboxymethylamino)carbonyl-thiophen-2-yl]pentane], the “Mouse Hypercal μg/Kg/d” value in series [2] is “>=1000 μg/Kg/d”. The EC50 in the series on rat osteocalcin promoter (Rattus norvegicus) was determined as 8.05 nM. In addition, the IC50 in the series on KERtr cells (setting [3]) turned out to be 13 nM.

For `CCc1cc(C(CC)(CC)c2ccc(C(=O)O)s2)ccc1OCC(C)(O)C(C)(C)C` (single isomer, unassigned) [Ex. 108, 3′-[4-(2-hydroxy-2,3,3-trimethylbutoxy)-3-ethylphenyl]-3′-[5-carboxy-thiophen-2-yl]pentane], the IC50 in series [1] (Homo sapiens, PBMC) worked out at 597 nM; in the series on KERtr cells (setting [3]), 66 nM. Besides, the “Mouse Hypercal” value in series [2] is 300 µg/kg/day. Moreover, the concentration giving a half-maximal response (EC50) in the series with rat osteocalcin promoter (Rattus norvegicus) was determined as 5.25 nM.

In the case of `CCc1cc(C(CC)(CC)c2ccc(C(=O)N[C@@H](C)C(=O)O)s2)ccc1OCC(C)(O)C(C)(C)C` (single isomer, unassigned) [Ex. 110, d-3′-[4-(2-hydroxy-2,3,3-trimethylbutoxy)-3-ethylphenyl]-3′-[5-(carboxy-1-ethylamino)carbonyl-thiophen-2-yl]pentane], the IC50 was 288 nM in series [1] (Homo sapiens, PBMC) and 9.5 nM in the series with KERtr cells (setting [3]). Besides, in series [2], the “Mouse Hypercal” value is less than 300 µg/kg/day. The EC50 in the series with rat osteocalcin promoter (Rattus norvegicus) was found to be 0.225 nM.

Consider `C=C1/C(=C\C=C2/CCC[C@]3(C)[C@@H]([C@H](C)CCCC(C)(C)O)CC[C@@H]23)C[C@@H](O)C[C@@H]1O` [AA, 1α,25-dihydroxyvitamin D3, reference compound], for which, in series [1], the IC50 is 1.2 nM. For the same compound, the “Mouse Hypercal” value in series [2] is 0.06 µg/kg/day. In addition, the concentration for a half-maximal effect (EC50) in the series on rat osteocalcin promoter was found to be 5 nM.

For the compound `CCC(CC)(c1ccc(OCC(=O)C(C)(C)C)c(C)c1)c1ccc(OCC(=O)C(C)(C)C)c(C)c1` [DD, reference compound], the “Mouse Hypercal” value in series [2] is 1000 µg/kg/day. Also, in the series with rat osteocalcin promoter (Rattus norvegicus), the EC50 came out at 31.1 nM. For the same compound, the IC50 with KERtr cells (setting [3]) came to 1060 nM.

`CCC(CC)(c1ccc(OCC(=O)C(C)(C)C)c(C)c1)c1cc(C)c(CS(C)(=O)=O)s1` [Ex. 9]: the IC50 in series [1] (Homo sapiens, PBMC) was found to be 98 nM; in the series with KERtr cells (setting [3]) it was 129 nM. Moreover, the 50% effective concentration (EC50) in the series on rat osteocalcin promoter (Rattus norvegicus) worked out at 46.6 nM.

With `CCC(CC)(c1ccc(OCC(O)C(C)(C)C)c(C)c1)c1cc(C)c(C(=O)N[C@@H](C)C(=O)O)s1` (stereo partly drawn) [Ex. 55, L-2-[(5-{1-Ethyl-1-[4-(2-hydroxy-3,3-dimethyl-butoxy)-3-methyl-phenyl]-propyl}-3-methyl-thiophene-2-carbonyl)-amino]-propionic acid], in series [2], the “Mouse Hypercal” value was 1000 µg/kg/day. For the same compound, in the series with rat osteocalcin promoter, the EC50 turned out to be 29.6 nM. For the same compound, the 50% inhibitory concentration (IC50) in the series on KERtr cells turned out to be 0.1 nM.

As for `CCC(CC)(c1ccc(OCC(O)C(C)(C)C)c(C)c1)c1cc(C)c(C(=O)N[C@@H](C)C(=O)O)s1` (stereo partly drawn) [Ex. 65, L-2-[(5-{1-Ethyl-1-[4-(2-hydroxy-3,3-dimethyl-butoxy)-3-methyl-phenyl]-propyl}-3-methyl-thiophene-2-carbonyl)-amino]-propionic acid], the half-maximal inhibitory concentration (IC50) stood at 41 nM in series [1] (Homo sapiens, PBMC) and 56 nM in the series on KERtr cells. Moreover, in series [2], the “Mouse Hypercal” value is 300 µg/kg/day. Also, the EC50 in the series with rat osteocalcin promoter was found to be 3.4 nM.

Take `CCC(CC)(c1ccc(OCC(O)C(C)(C)C)c(C)c1)c1cc(C)c(C(=O)N[C@H](C)C(=O)O)s1` (stereo partly drawn) [Ex. 67, D-2-[(5-{1-Ethyl-1-[4-(2-hydroxy-3,3-dimethyl-butoxy)-3-methyl-phenyl]-propyl}-3-methyl-thiophene-2-carbonyl)-amino]-propionic acid]: in series [2], the “Mouse Hypercal” value was 3000 µg/kg/day. Also, the EC50 in the series with rat osteocalcin promoter was determined as 19.4 nM. Moreover, the concentration for half-maximal inhibition (IC50) in the series on KERtr cells (setting [3]) came to 197 nM.

As to `CCCc1cc(C(CC)(CC)c2ccc(C(=O)O)s2)ccc1OCC(O)C(C)(C)C` (stereo not drawn) [Ex. 93, 3′-[4-(2-hydroxy-3,3-dimethylbutoxy)-3-n-propylphenyl]-3′-[5-carboxy-thiophen-2-yl]pentane], the “Mouse Hypercal” value in series [2] was 3000 µg/kg/day. Besides, the EC50 with rat osteocalcin promoter (Rattus norvegicus) was 38.5 nM. Further, in the series on KERtr cells (setting [3]), the IC50 was found to be 178 nM.

In the case of `CCC(CC)(c1ccc(OCC(O)C(C)(C)C)c(C)c1)c1cc(C)c(S(=O)(=O)NCC(=O)O)s1` (stereo not drawn) [Ex. 138], the IC50 amounted to 110 nM in series [1] (Homo sapiens, PBMC) and 102 nM in the series on KERtr cells (setting [3]).

`CCC(CC)(c1ccc(OCC(O)C(C)(C)C)c(C)c1)c1cc(C)c(-c2n[nH]c(=O)o2)s1` (stereo not drawn) [Ex. 170]: in series [1] (Homo sapiens, PBMC), the IC50 turned out to be 100 nM.

Values taken from US7601850B2, “Phenyl-thiophene type vitamin D receptor modulators” (Eli Lilly and Company, priority 2002, dated 2009).
